Measurements: doi:10.1101/2025.09.30.679600, “Expansion of DNA-Encoded Library Hits Using Generative Chemistry and Ultra-Large Compound Catalogs” (bioRxiv, 2025)

Molecular target: T1, 53BP1 tandem Tudor domain (TTD) (Homo sapiens, UniProt Q12888)
T1 construct: DEL screens targeting the tandem Tudor domain (TTD) of 53BP1; made in house
Assay: 53BP1 TR-FRET displacement assay
Assay type: binding
Details: mean ± SD of at least three replicates
Description: In this work, we test the hypothesis that initializing a structure-based generative AI workflow with validated DEL screening data can rapidly identify novel, potent, and more drug-like compounds from an ultra-large virtual library, outperforming traditional hit-picking strategies. To do so, we present a DEL-driven, integrated virtual screening workflow that combines the HIDDEN GEM platform with the multi-billion-compound Enamine REAL Space (Figure 1). Using data from our recently published DEL screens targeting the tandem Tudor domain (TTD) of 53BP1,[8],[16],[27] we biased our generative structure-guided ML model to identify novel, commercially available compounds from the Enamine REAL Space. All purchased and off-DNA synthesized compounds were experimentally tested using a developed time-resolved fluorescence resonance energy transfer (TR-FRET) displacement assay. This workflow provides a rapid, cost-effective strategy for academic labs and small biotech companies to accelerate hit discovery using focused DEL libraries and to expand beyond the screened chemical space, which is particularly important for smaller-sized DELs.
Reagents, protein expression/purification, DEL production and screening, and TR-FRET screening protocols were previously reported.[16],[27] […]
[Compound], µM [Compound], µM [Compound], µM
[Compound], µM [Compound], µM
Figure S2. 53BP1 TR-FRET displacement assay dose-response curves for compounds identified from
HIDDEN GEM. Each data point represents the mean of three replicates (n=3), with error bars indicating standard
deviation. Dose-response curves were fitted using a four-parameter Hill equation. […]

T1 sequence (Q12888 1484-1603 limits assumed): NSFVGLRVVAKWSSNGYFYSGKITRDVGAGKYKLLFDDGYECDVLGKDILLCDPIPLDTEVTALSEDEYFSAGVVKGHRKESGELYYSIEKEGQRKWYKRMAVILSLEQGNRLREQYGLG

IC50 [µM] | Structure (SMILES)
22 ± 3.6 | CN1CCN(c2ccccc2NC(=O)c2cc3ccccc3[nH]2)CC1 [UNC10413788A]
54 ± 8.5 | CN1CCC(Nc2ccccc2NC(=O)c2cccc(F)c2)CC1 [UNC10413800A]
43 ± 0.44 | COc1ccc(C(CNC2=NS(=O)(=O)c3ccccc32)N2CCCC2)cc1 (centres unmarked) [UNC10413807A]
58 ± 10 | CCN1CCN(c2ccccc2NC(=O)c2cc(O)c3ccccc3c2)CC1 [UNC10414641A]
34 ± 3 | Cc1ccc(C(CNC2=NS(=O)(=O)c3ccccc32)N2CCCC2)cc1 (centres unmarked) [UNC10414645A]
